Results published in US8497293B2, “Haloalkylsubstituted aryloxyalkylimidazolines for use as pesticides” (Syngenta Crop Protection LLC, priority 2007, dated 2013).
Where a name gives a salt, the structure may show the parent alone. Read-outs that look alike come from different tables or passages of the source.

What was measured:
[1] = tested on: Myzus persicae (Green Peach Aphid); assay: Myzus persicae sunflower leaf disc spray test; format: in vivo; conditions: foliar, 144 h, read-out: control (mortality)
Method: Sunflower leaf discs were placed on agar in a 24-well microtiter plate and sprayed with test solutions at an application rate of 200 ppm. After drying, the leaf discs were infested with an aphid population of mixed ages. After an incubation period of 6 DAT, samples were checked for mortality. The following compounds gave 100% control: 1.001, 1.003, 1.004, 1.005, 1.006, 1.007, 1.008, 1.016, 1.017, 1.019, 1.021, 1.023 and 1.024. The following compounds gave 80% control: 1.002 and 1.026. The following compounds gave 50% control: 1.010, 1.018, 1.025 and 1.027.

[2] = tested on: Myzus persicae (Green Peach Aphid); assay: Myzus persicae pea seedling root (systemic) test; format: in vivo; conditions: 144 h, read-out: control (mortality)
Description: Roots of pea seedlings, infested with an aphid population of mixed ages, were placed directly in the test solutions of 24 ppm. 6 days after introduction, samples were checked for mortality. The following compounds gave 100% control: 1.001, 1.003, 1.016, 1.021, 1.022 and 1.024. The following compounds gave 80% control: 1.005, 1.019, 1.020 and 1.023.

[3] = tested on: Tetranychus urticae (Two-Spotted Spider Mite); assay: Tetranychus urticae bean leaf disc spray test; format: in vivo; conditions: foliar, 192 h, read-out: control (egg mortality, larval mortality, adult mortality)
Description: Bean leaf discs on agar in 24-well microtiter plates wer sprayed with test solutions at an application rate of 200 ppm. After drying, the leaf discs are infested with mite populations of mixed ages. 8 days later, discs are checked for egg mortality, larval mortality, and adult mortality. The following compounds gave 100% control: 1.001, 1.003, 1.004, 1.005, 1.007, 1.016, 1.021, 1.022, 1.023, and 1.024. The following compounds gave 80% control: 1.019, 1.025 and 1.027.

[4] = tested on: Heliothis virescens (Tobacco Budworm); assay: Heliothis virescens egg/larval test on artificial diet; format: in vivo; conditions: read-out: control (egg mortality, larval mortality, growth regulation)
Method: Eggs (0-24 h old) were placed in 24-well microtiter plate on artificial diet and treated with test solutions at an application rate of 200 ppm by pipetting. After an incubation period of 4 days, samples were checked for egg mortality, larval mortality, and growth regulation. The following compounds gave 100% control: 1.016, 1.020 and 1.024. The following compounds gave 80% control: 1.001, 1.003 and 1.022. The following compounds gave 50% control: 1.004, 1.007, and 1.014.

[5] = 200 ppm by pipetting, eggs 0-24 h old on artificial diet, 4 days incubation

Structure (SMILES)	melting point [°C]	mortality at 200 ppm [1] [%]	mortality at 24 ppm [2] [%]	mortality at 200 ppm [3] [%]	mortality at 200 ppm [4] [%]	mortality at 200 ppm [4, 5] [%]
CCc1c(OC(CC)C2=NCCN2)cccc1C(F)(F)F (stereo not shown) (as salt: oxalate)	185 to 187	–	–	–	–	–
CCC(Oc1cccc(C(F)F)c1C)C1=NCCN1 (stereo not shown) [Compound 1.023]	–	100	80	100	–	–
CCC(Oc1cccc(C(F)(F)F)c1CO)C1=NCCN1 (stereo not shown) (as salt: chloride)	150 to 157	–	–	–	–	–
CCC(Oc1cccc(CF)c1C)C1=NCCN1 (stereo not shown) [Compound 1.022]	–	–	100	100	80	–
CCCC(Oc1cccc(C(F)(F)F)c1SC)C1=NCCN1 (stereo not shown) (as salt: maleate)	90 to 109	–	–	–	–	–
CCCC(Oc1cccc(CF)c1C)C1=NCCN1 (stereo not shown) [Compound 1.024]	–	100	100	100	–	100
CCCC(Oc1cccc(C(F)(F)F)c1C)C1=NCCN1 (stereo not shown) [Compound 1.003]	–	100	100	100	–	80
Cc1c(OC(C2=NCCN2)C(C)C)cccc1C(F)(F)F (stereo not shown) [Compound 1.005]	–	100	80	100	–	–
CCCC(Oc1cccc(C(F)F)c1C)C1=NCCN1 (stereo not shown) [Compound 1.016]	–	100	100	100	–	100
CCC(Oc1cccc(C(F)F)c1C1CC1)C1=NCCN1 (stereo not shown) [Compound 1.017]	–	100	–	–	–	–
CCC(Oc1cccc(C(F)(F)F)c1C(F)(F)F)C1=NCCN1 (stereo not shown)	127 to 133	–	–	–	–	–
CCC(Oc1cccc(C(F)(F)F)c1C)C1=NCCN1 (stereo not shown) [Compound 1.001, 2-[1-(2-methyl-3-trifluoromethyl-phenoxy)-propyl]-4,5-dihydro-1H-imidazole]	–	100	100	100	80	–
Cc1c(OC(C2=NCCN2)C(C)C)cccc1C(F)F (stereo not shown) [Compound 1.021]	–	100	100	100	–	–
CCCCC(Oc1cccc(C(F)F)c1C)C1=NCCN1 (stereo not shown) [Compound 1.019]	–	100	80	80	–	–
CCC(Oc1cccc(C(F)(F)F)c1C(F)F)C1=NCCN1 (stereo not shown) [Compound 1.002]	–	80	–	–	–	–
CCCC(Oc1cccc(C(F)(F)F)c1S(C)(=O)=O)C1=NCCN1 (stereo not shown)	112 to 120	–	–	–	–	–
CCCCC(Oc1cccc(C(F)(F)F)c1C)C1=NCCN1 (stereo not shown) [Compound 1.004]	–	100	–	100	–	50
CCCCC(Oc1cccc(CF)c1C)C1=NCCN1 (stereo not shown) [Compound 1.020]	–	–	80	–	–	100
